# According to patent publication US20050238679A1, “Taurine-containing preparations for improving the skin barrier” (Beiersdorf AG, priority 2004, published 2005):
# Experiment: interfacial tension towards water as measure of polarity of lipids
# Assay type: physicochemical
# Conditions: lipid/oil component against water; regarded as polar if less than 30 mN/m
# Description: Oils and fats differ from one another in their polarity, which is difficult to define. It has already been proposed to adopt the interfacial tension towards water as a measure of the polarity index of an oil or of an oily phase. Then, the lower the interfacial tension between this oily phase and water, the greater the polarity of the oily phase in question. According to the invention, the interfacial tension is regarded as one possible measure of the polarity of a given oil component.
# The interfacial tension is the force which acts on an imaginary line one meter in length in the interface between two phases. The physical unit for this interfacial tension is conventionally calculated from the force/length relationship and is usually expressed in mN/m (millinewtons divided by meters). It has a positive sign if it endeavours to reduce the interface. In the converse case, it has a negative sign. For the purposes of the present invention, lipids are regarded as polar if their interfacial tension towards water is less than 30 mN/m.
# Nonpolar oils are, for example, those which are chosen from the group of branched and unbranched hydrocarbons and hydrocarbon waxes, in particular Vaseline (petrolatum), paraffin oil, squalane and squalene, polyolefins and hydrogenated polyisobutenes. Among the polyolefins, polydecenes are the preferred substances.
row,Compound,interfacial tension towards water [mN/m]
1,"CCCCCCCCCCCCCCCCCC(=O)OCCCCCCCC [CETIOL ® 868, Octyl Stearate]",28.4
2,"CCCCCCCCCCCCCCCCCCOC(=O)CCCCCC [TEGOSOFT ® SH, Stearyl Heptanoate]",28.7
3,"CCCCCCCCCCCCCC(=O)OCC(CCCCCCCC)CCCCCCCCCC (stereo not shown) [MOD, Octyldodeceyl Myristate]",22.1
4,"CCCCCCCCOC(=O)CCCCCCCCCCCCCCC(C)C [PRISORINE ® 2036, Octyl Isostearate]",29.7
5,"CCCCCCCC(=O)OCC(COC(=O)CCCCCCC)OC(=O)CCCCCCC [TRIVENT ® OCG, Tricaprylin]",20.2
6,"CCCCCCCCCCCCCCCCCC(=O)OC(C)C [Isopropyl stearate, Isopropyl Stearate]",21.9

# Experiment: stability of taurine under customary storage conditions
# Assay type: physicochemical
# Conditions: various pH values (5<pH<7), customary storage conditions (+6° C., −10° C., rocking test)
# Description: On account of its solubility in water, it is used in various bases such as O/W creams, W/O creams, PIT emulsions, hydrous sticks, hydrodispersions etc. […] Dry skin has a reduced skin barrier. Taurine brings about an increase in the skin moisturization of cosmetic preparations. Moisturization of dry skin brings about a strengthening of the skin barrier, which means that foreign substances can penetrate less easily through the skin into the deeper skin layers. However, taurine applied to the skin penetrates […] into the lower skin layers.
row,Compound,stability
1,"NCCS(=O)(=O)O [Taurine, 2-aminoethanesulphonic acid]",very good stability
